According to patent publication US20240316022A1 (TYRA BIOSCIENCES, INC., priority 2021, published 2024):

Assays:
Experiment in all cases: Kinase binding assay (kinase-tagged T7 phage, qPCR), Kd
FGFR1 = molecular target: T1, FGFR1 (Homo sapiens, UniProt P11362); settings: read-out: FGFR1 (Kd nM)
T1 construct: made in house; host or cells: E. coli derived from BL21, infected with T7 phage
Experimental: (§1) Kinase-tagged T7 phage strains were prepared in an E. coli host derived from the BL21 strain. E. coli were grown to log-phase and infected with T7 phage and incubated with shaking at 32° C. until lysis. The lysates were centrifuged and filtered to remove cell debris. […] The liganded beads were blocked with excess biotin and washed with blocking buffer SeaBlock (Pierce), 1% BSA, 0.05% Tween 20, 1 mM DTT to remove unbound ligand and to reduce non-specific binding.
(§2) Kds were determined using an 11-point 3-fold compound dilution series with three DMSO control points. […] The compounds were then diluted directly into the assays such that the final concentration of DMSO was 0.9%. All reactions performed in polypropylene 384-well plate. Each was a final volume of 0.02 ml. […] The kinase concentration in the eluates was measured by qPCR.
(§3) Binding constants were calculated with a standard dose-response curve using the Hill equation: […]
(§4) The Hill Slope was set to −1. Curves were fitted using a non-linear least square fit with the Levenberg-Marquardt algorithm.

FGFR2 = molecular target: T2, FGFR2 (Homo sapiens, UniProt P21802); settings: read-out: FGFR2 (Kd nM)
T2 construct: made in house; host or cells: E. coli derived from BL21, infected with T7 phage
Experimental: as §1, §2, §3, §4

FGFR3 = molecular target: T3, FGFR3 (Homo sapiens, UniProt P22607); settings: read-out: FGFR3 (Kd nM)
T3 construct: made in house; host or cells: E. coli derived from BL21, infected with T7 phage
Experimental: (§5) Kinase-tagged T7 phage strains were prepared in an E. coli host derived from the BL21 strain. E. coli were grown to log-phase and infected with T7 phage and incubated with shaking at 32° C. until lysis. The lysates were centrifuged and filtered to remove cell debris. Streptavidin-coated magnetic beads were treated with biotinylated small molecule ligands for 30 minutes at room temperature to generate affinity resins for kinase assays. The liganded beads were blocked with excess biotin and washed with blocking buffer SeaBlock (Pierce), 1% BSA, 0.05% Tween 20, 1 mM DTT to remove unbound ligand and to reduce non-specific binding. Binding reactions were assembled by combining kinases, liganded affinity beads, and test compounds in 1× binding buffer (20% SeaBlock, 0.17×PBS, 0.05% Tween 20, 6 mM DTT).
(§6) Test compounds were prepared as 111X stocks in 100% DMSO. Kds were determined using an 11-point 3-fold compound dilution series with three DMSO control points. All compounds for Kd measurements are distributed by acoustic transfer (non-contact dispensing) in 100% DMSO. The compounds were then diluted directly into the assays such that the final concentration of DMSO was 0.9%. All reactions performed in polypropylene 384-well plate. Each was a final volume of 0.02 ml. The assay plates were incubated at room temperature with shaking for 1 hour and the affinity beads were washed with wash buffer (1×PBS, 0.05% Tween 20). The beads were then re-suspended in elution buffer (1×PBS, 0.05% Tween 20, 0.5 μM non-biotinylated affinity ligand) and incubated at room temperature with shaking for 30 minutes. The kinase concentration in the eluates was measured by qPCR.
as §3, §4

FGFR4 = molecular target: T4, FGFR4 (Homo sapiens, UniProt P22455); settings: read-out: FGFR4 (Kd nM)
T4 construct: made in house; host or cells: E. coli derived from BL21, infected with T7 phage
Experimental: as §5, §6, §3, §4

T1 sequence (P11362 22-822): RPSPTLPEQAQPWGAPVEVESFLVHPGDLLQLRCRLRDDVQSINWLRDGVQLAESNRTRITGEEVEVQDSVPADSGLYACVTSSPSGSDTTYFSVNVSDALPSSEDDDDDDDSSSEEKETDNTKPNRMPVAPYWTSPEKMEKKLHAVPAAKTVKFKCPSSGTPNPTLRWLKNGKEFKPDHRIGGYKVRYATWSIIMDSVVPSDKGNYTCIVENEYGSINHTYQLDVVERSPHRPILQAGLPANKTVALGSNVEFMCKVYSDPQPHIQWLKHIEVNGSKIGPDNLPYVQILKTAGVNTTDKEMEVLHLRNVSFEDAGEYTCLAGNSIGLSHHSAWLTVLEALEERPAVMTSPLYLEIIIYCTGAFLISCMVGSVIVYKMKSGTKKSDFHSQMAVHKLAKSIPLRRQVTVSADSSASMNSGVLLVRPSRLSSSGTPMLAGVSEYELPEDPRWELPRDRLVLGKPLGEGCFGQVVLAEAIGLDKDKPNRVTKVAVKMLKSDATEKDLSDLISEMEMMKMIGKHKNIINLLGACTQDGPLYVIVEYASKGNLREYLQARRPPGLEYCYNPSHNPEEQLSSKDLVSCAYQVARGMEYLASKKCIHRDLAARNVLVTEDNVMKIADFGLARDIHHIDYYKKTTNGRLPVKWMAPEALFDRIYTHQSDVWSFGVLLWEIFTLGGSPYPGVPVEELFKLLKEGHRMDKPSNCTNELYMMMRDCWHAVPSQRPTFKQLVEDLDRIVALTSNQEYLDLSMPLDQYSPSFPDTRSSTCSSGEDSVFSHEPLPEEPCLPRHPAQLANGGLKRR
T2 sequence (P21802 22-821): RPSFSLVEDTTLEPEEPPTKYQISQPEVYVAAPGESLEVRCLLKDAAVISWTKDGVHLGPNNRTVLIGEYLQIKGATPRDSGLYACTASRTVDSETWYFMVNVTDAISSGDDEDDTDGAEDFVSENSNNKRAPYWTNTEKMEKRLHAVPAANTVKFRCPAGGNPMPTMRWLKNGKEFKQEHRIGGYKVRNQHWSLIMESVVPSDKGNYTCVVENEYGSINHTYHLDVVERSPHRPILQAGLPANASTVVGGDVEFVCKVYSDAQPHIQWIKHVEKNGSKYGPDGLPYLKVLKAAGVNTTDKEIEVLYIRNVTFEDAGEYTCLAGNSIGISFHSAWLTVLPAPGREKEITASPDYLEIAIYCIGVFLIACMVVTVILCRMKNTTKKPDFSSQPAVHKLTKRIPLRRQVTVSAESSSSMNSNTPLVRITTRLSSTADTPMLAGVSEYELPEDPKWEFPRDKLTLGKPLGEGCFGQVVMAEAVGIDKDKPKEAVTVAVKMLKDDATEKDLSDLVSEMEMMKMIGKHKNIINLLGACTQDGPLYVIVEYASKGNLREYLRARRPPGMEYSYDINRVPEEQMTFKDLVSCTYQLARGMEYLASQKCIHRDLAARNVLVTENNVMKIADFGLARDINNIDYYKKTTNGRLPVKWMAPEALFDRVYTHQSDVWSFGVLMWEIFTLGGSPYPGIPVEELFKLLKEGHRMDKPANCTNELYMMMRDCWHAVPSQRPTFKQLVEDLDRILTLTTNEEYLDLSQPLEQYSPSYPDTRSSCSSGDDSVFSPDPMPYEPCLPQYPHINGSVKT
T4 sequence (P22455 22-802): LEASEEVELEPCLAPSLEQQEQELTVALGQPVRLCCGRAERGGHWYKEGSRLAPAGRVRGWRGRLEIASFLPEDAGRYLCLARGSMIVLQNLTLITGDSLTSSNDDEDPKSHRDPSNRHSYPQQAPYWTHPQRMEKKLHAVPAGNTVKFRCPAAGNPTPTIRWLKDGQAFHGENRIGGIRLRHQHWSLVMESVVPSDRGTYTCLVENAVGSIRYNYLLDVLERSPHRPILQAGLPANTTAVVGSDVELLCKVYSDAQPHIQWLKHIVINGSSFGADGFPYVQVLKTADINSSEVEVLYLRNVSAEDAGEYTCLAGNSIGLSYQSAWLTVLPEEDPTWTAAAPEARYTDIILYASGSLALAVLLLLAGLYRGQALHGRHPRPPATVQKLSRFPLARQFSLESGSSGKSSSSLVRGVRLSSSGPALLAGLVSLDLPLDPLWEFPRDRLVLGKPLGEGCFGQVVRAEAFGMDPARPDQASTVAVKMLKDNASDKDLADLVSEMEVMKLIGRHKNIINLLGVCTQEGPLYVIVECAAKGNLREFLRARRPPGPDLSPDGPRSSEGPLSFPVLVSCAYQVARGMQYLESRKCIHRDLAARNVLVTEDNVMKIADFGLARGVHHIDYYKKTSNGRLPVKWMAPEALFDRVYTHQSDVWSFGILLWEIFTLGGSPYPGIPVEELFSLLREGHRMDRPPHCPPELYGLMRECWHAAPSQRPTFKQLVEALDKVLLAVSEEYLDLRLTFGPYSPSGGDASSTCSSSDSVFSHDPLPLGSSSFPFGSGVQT
T3 sequence (P22607 23-806): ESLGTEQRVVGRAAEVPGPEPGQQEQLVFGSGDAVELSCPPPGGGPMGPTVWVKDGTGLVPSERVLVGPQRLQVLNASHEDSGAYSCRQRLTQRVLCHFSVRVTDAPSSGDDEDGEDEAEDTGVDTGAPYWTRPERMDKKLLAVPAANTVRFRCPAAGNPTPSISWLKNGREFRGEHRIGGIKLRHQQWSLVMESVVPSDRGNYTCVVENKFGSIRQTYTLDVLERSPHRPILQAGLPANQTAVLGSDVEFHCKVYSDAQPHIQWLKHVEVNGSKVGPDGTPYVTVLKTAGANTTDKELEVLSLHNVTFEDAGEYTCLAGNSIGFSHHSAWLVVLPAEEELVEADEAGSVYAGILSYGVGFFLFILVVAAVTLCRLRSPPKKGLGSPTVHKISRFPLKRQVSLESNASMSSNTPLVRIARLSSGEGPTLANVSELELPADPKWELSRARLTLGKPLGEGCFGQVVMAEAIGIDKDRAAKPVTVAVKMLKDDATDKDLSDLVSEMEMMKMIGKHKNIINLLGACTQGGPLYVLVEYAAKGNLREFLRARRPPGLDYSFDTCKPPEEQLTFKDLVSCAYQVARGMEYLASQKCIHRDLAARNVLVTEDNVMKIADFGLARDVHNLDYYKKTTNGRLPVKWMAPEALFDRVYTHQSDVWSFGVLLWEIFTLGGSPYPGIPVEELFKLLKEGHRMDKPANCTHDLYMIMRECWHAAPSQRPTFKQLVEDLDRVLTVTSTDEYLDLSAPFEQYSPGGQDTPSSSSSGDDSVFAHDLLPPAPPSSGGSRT

Structure (SMILES) | Kd (FGFR1) | Kd (FGFR2) | Kd (FGFR3) | Kd (FGFR4)
C[C@@H](Oc1ccc2[nH]nc(-c3cnc(N)c(OC(F)(F)F)c3)c2c1)c1c(Cl)cncc1Cl [Example 32, 5-[5-[(1R)-1-(3,5-dichloro-4-pyridyl)ethoxy]-1H-indazol-3-yl]-3-(trifluoro-methoxy)pyridin-2-amine] | > 1000 nM | > 1000 nM | > 1000 nM | 0.1 to 100 nM
CCOc1cc(-c2n[nH]c3ccc(O[C@H](C)c4c(Cl)cncc4Cl)cc23)cnc1N [Example 33, 5-[5-[(1R)-1-(3,5-Dichloro-4-pyridyl)ethoxy]-1H-indazol-3-yl]-3-ethoxy-pyridin-2-amine] | > 1000 nM | > 1000 nM | 250 to 1000 nM | 0.1 to 100 nM
C[C@@H](Oc1ccc2[nH]nc(-c3cnc(N)c(OCC(F)(F)F)c3)c2c1)c1c(Cl)cncc1Cl [Example 37, 5-[5-[(1R)-1-(3,5-Dichloro-4-pyridyl)ethoxy]-1H-indazol-3-yl]-3-(2,2,2-trifluoroethoxy)pyridin-2-amine] | > 1000 nM | > 1000 nM | > 1000 nM | 0.1 to 100 nM
Cc1cccc(C(=O)N2CCOc3ncc(-c4n[nH]c5ccc(O[C@H](C)c6c(Cl)cncc6Cl)cc45)cc32)n1 [Example 39, [7-[5-[(1R)-1-(3,5-dichloro-4-pyridyl)ethoxy]-1H-indazol-3-yl]-2,3-dihydro-pyrido[2,3-b][1,4]oxazin-1-yl]-(6-methyl-2-pyridyl)methanone] | > 1000 nM | > 1000 nM | 250 to 1000 nM | 0.1 to 100 nM
COc1cc(N)cc(-c2n[nH]c3ccc(O[C@H](C)c4c(Cl)cncc4Cl)cc23)c1 [Example 44, 3-[5-[(1R)-1-(3,5-dichloro-4-pyridyl)ethoxy]-1H-indazol-3-yl]-5-methoxy-aniline] | > 1000 nM | > 1000 nM | 250 to 1000 nM | 0.1 to 100 nM
COc1cc(NCc2ccccn2)cc(-c2n[nH]c3ccc(O[C@H](C)c4c(Cl)cncc4Cl)cc23)c1 [Example 46, 3-[5-[(1R)-1-(3,5-dichloro-4-pyridyl)ethoxy]-1H-indazol-3-yl]-5-methoxy-N-(2-pyridyl-methyl)aniline] | > 1000 nM | > 1000 nM | > 1000 nM | 0.1 to 100 nM
C[C@@H](Oc1ccc2[nH]nc(-c3cnc4c(c3)N(Cc3ccccn3)CCO4)c2c1)c1c(Cl)cncc1Cl [Example 48, 7-[5-[(1R)-1-(3,5-dichloro-4-pyridyl)ethoxy]-1H-indazol-3-yl]-1-(2-pyridyl-methyl)-2,3-dihydro-pyrido[2,3-b][1,4]oxazine] | > 1000 nM | > 1000 nM | 0.1 to 100 nM | 250 to 1000 nM
C[C@@H](Oc1ccc2[nH]nc(-c3cnc4c(c3)N(CCN3CCOCC3)CCO4)c2c1)c1c(Cl)cncc1Cl [Example 50, 7-[5-[(1R)-1-(3,5-dichloro-4-pyridyl)ethoxy]-1H-indazol-3-yl]-1-(2-morpholino-ethyl)-2,3-dihydropyrido[2,3-b][1,4]oxazine] | > 1000 nM | > 1000 nM | > 1000 nM | 0.1 to 100 nM
C[C@@H](Oc1ccc2[nH]nc(-c3cnc4c(c3)N(CCN(C)C)CCO4)c2c1)c1c(Cl)cncc1Cl [Example 51, 2-[7-[5-[(1R)-1-(3,5-dichloro-4-pyridyl)ethoxy]-1H-indazol-3-yl]-2,3-dihydro-pyrido[2,3-b][1,4]oxazin-1-yl]-N,N-dimethyl-ethanamine] | > 1000 nM | > 1000 nM | 250 to 1000 nM | 100 to 250 nM
CCOc1cc(OC)cc(-c2n[nH]c3ccc(O[C@H](C)c4c(C)cnnc4C)cc23)c1 [Example 52, 5-[(1R)-1-(3,5-dimethylpyridazin-4-yl)ethoxy]-3-(3-ethoxy-5-methoxy-phenyl)-1H-indazole] | > 1000 nM | 250 to 1000 nM | 100 to 250 nM | 0.1 to 100 nM
COc1cc(OC)cc(-c2n[nH]c3ccc(O[C@H](C)c4c(C)cnnc4C)cc23)c1 [Example 54, 3-(3,5-dimethoxyphenyl)-5-[(1R)-1-(3,5-dimethylpyridazin-4-yl)ethoxy]-1H-indazole] | 250 to 1000 nM | 250 to 1000 nM | 0.1 to 100 nM | 0.1 to 100 nM
COc1cc(C#N)cc(-c2n[nH]c3ccc(O[C@@H](C)c4c(C)cnnc4C)cc23)c1 [Example 55, 3-[5-[(1S)-1-(3,5-dimethylpyridazin-4-yl)ethoxy]-1H-indazol-3-yl]-5-methoxy-benzonitrile] | > 1000 nM | > 1000 nM | > 1000 nM | 250 to 1000 nM
CCOc1cc(C#N)cc(-c2n[nH]c3ccc(O[C@H](C)c4c(C)cnnc4C)cc23)c1 [Example 56, 3-[5-[(1R)-1-(3,5-dimethylpyridazin-4-yl)ethoxy]-1H-indazol-3-yl]-5-ethoxy-benzonitrile] | 250 to 1000 nM | 250 to 1000 nM | 100 to 250 nM | 0.1 to 100 nM
Cc1cnnc(C)c1[C@@H](C)Oc1ccc2[nH]nc(-c3cc(C#N)cc(OC(C)C)c3)c2c1 [Example 57, 3-[5-[(1R)-1-(3,5-dimethylpyridazin-4-yl)ethoxy]-1H-indazol-3-yl]-5-isopropoxy-benzonitrile] | 250 to 1000 nM | > 1000 nM | 250 to 1000 nM | 0.1 to 100 nM

Now from value to compound:

Kd (FGFR1) | Kd (FGFR2) | Kd (FGFR3) | Kd (FGFR4) | Structure (SMILES)
100 to 250 nM | 250 to 1000 nM | 0.1 to 100 nM | 0.1 to 100 nM | CC(C)OC(=O)Nc1ccc(-c2n[nH]c3ccc(O[C@H](C)c4c(Cl)cncc4Cl)cc23)cn1 [Example 27, isopropyl N-[5-[5-[(1R)-1-(3,5-dichloro-4-pyridyl)ethoxy]-1H-indazol-3-yl]-2-pyridyl]carbamate]
0.1 to 100 nM | 0.1 to 100 nM | 0.1 to 100 nM | 0.1 to 100 nM | C[C@@H](Oc1ccc2[nH]nc(-c3ccnc(N)c3)c2c1)c1c(Cl)cncc1Cl [Example 29, 4-[5-[(1R)-1-(3,5-dichloro-4-pyridyl)ethoxy]-1H-indazol-3-yl]pyridin-2-amine]
250 to 1000 nM | > 1000 nM | 100 to 250 nM | 100 to 250 nM | COc1ncc(-c2n[nH]c3ccc(O[C@H](C)c4c(Cl)cncc4Cl)cc23)cc1NC(=O)CCN(C)C [Example 31, N-[5-[5-[(1R)-1-(3,5-dichloro-4-pyridyl)ethoxy]-1H-indazol-3-yl]-2-methoxy-3-pyridyl]-3-(dimethylamino)propanamido]
0.1 to 100 nM | 0.1 to 100 nM | 0.1 to 100 nM | 0.1 to 100 nM | COCCNc1cc(-c2n[nH]c3ccc(O[C@H](C)c4c(Cl)cncc4Cl)cc23)ccn1 [Example 35, (R)-4-(5-(1-(3,5-Dichloropyridin-4-yl)ethoxy)-1H-indazol-3-yl)-N-(2-methoxyethyl)pyridin-2-amine]
0.1 to 100 nM | 0.1 to 100 nM | 0.1 to 100 nM | 0.1 to 100 nM | C[C@@H](Oc1ccc2[nH]nc(-c3ccnc(NCCO)c3)c2c1)c1c(Cl)cncc1Cl [Example 36, 2-[[4-[5-[(1R)-1-(3,5-Dichloro-4-pyridyl)ethoxy]-1H-indazol-3-yl]-2-pyridyl]amino]ethanol]
0.1 to 100 nM | 0.1 to 100 nM | 0.1 to 100 nM | 0.1 to 100 nM | C[C@@H](Oc1ccc2[nH]nc(-c3cnc4c(c3)OCC(=O)N4)c2c1)c1c(Cl)cncc1Cl [Example 38, 7-[5-[(1R)-1-(3,5-dichloro-4-pyridyl)ethoxy]-1H-indazol-3-yl]-4H-pyrido[3,2-b][1,4]oxazin-3-one]
250 to 1000 nM | 250 to 1000 nM | 0.1 to 100 nM | 0.1 to 100 nM | C[C@@H](Oc1ccc2[nH]nc(-c3cnc4c(c3)N(C(=O)OCCCN(C)C)CCO4)c2c1)c1c(Cl)cncc1Cl [Example 43, 3-(dimethyl-amino)propyl 7-[5-[(1R)-1-(3,5-dichloro-4-pyridyl)ethoxy]-1H-indazol-3-yl]-2,3-dihydro-pyrido[2,3-b][1,4]oxazine-1-carboxylate]
100 to 250 nM | 100 to 250 nM | 0.1 to 100 nM | 250 to 1000 nM | COc1cc(NCc2cccnc2)cc(-c2n[nH]c3ccc(O[C@H](C)c4c(Cl)cncc4Cl)cc23)c1 [Example 47, 3-[5-[(1R)-1-(3,5-dichloro-4-pyridyl)ethoxy]-1H-indazol-3-yl]-5-methoxy-N-(3-pyridyl-methyl)aniline]
